{"source": "patent US12213959B2", "about": "“Use of 3-O-sulfamoyloxy-7β-methyl-d-homo-6-oxaestra-1,3,5(10),8(9)-tetraen-17a-one to treat breast cancer” (priority 2018, dated 2025)", "key": {"[1]": {"conditions": "in vivo; cited from earlier work"}, "[2]": {"system": "breast cancer cells MCF-7", "conditions": "cited from earlier work"}, "[3]": {"system": "MCF-7 human cells culture (breast adenocarcinoma)", "test": "Proliferative activity of MCF-7 cells", "format": "cell-based", "method": "The study analysis was carried out on an passaged MCF-7 human cells culture culture (breast adenocarcinoma). Normal human dermal fibroblasts (HDF) of early passages were used as a negative control.\nThe cells were cultivated in Carrel vials in DMEM/F12 medium (Biolot) with 1.0% of antibiotic-free fetal bovine embryonic serum (Biolot) added in the 5% CO2 atmosphere, at 37° C.\nThe cells were seeded on Carrel vials at 50×10^4 cells per flask. To study the proliferative activity of the cells under conditions of sulfatase inhibition, 24 hours after seeding the culture medium […], and then these tumor cell lines were incubated for various periods of time (24 to 72 hrs). The inhibitor was dissolved in DMSO. […] To exclude the cytotoxic effect of DMSO, a control sample comprising DMSO without sulfatase inhibitor was prepared.\nTo exclude nonspecific detrimental effects of the compounds, normal human skin fibroblasts were used. Then the cells were detached with the versene-trypsin solution (Biolot), plated onto Carrel vials containing a fresh complete culture medium. The cells were counted when untreated control cells reached the maximum cell density per unit of surface area of a culture flask (monolayer), and their number was set as 100%. The proliferative activity of all of the studied cell cultures exposed to sulfatase inhibitors was determined in triplicate."}, "[4]": {"system": "breast tumours in FBV/N female mice, transgenic for HER-2/neu", "test": "Antitumour activity on breast tumours of HER-2/neu transgenic mice", "format": "in vivo", "conditions": "for Relative change of the average total volume of tumours to that of Day −1 (M): Tamoxifen-1, 4.0 mg/kg daily i.g.; for Average total volume of tumours in mice (M) / Average volume of tumors existing at the beginning of the experiment (M) / TGI (average total tumour volume) / TGI (average tumor volume): Tamoxifen-1 group; for Average total volume of tumours in mice (M) / Average volume of tumors existing at the beginning of the experiment (M): 4.0 mg/kg daily i.g.; for TGI (average total tumour volume) / TGI (average tumor volume): 4.0 mg/kg", "method": "The study was carried out on female FVB mice transgenic for HER-2/neu of the conventional category, the strain being obtained from the mouse bank Charles River Laboratories (Italy).\nDuration of the administration course was 27-28 days.\nThe control groups were given the olive oil (placebo).\nThe macroscopically detectable tumor nodes were measured in the animals once per week during the weighing process."}, "[5]": {"test": "Body weight and tolerability during the antitumour study", "conditions": "for Average body weight of mice (M): 4.0 mg/kg daily i.g.; for Body weight: Tamoxifen-2, 4 mg/kg, end of observation", "method": "The study medicament was administered i.g. using a metal atraumatic gavage (with the procedure corresponds to the oral route of administration in clinical settings). […] Ex tempore solutions of the medicament for administration were prepared in olive oil (refined olive oil supplemented with unrefined extra virgin olive oil available under Global Village “Clasico” trademark, lot L:183351116, expiry date 26.04.2020, BAIEO, Spain). The administered volume was 0.1 ml per 10 g of a mouse body weight (0.2 ml of a ready-to-use formulation for a mouse of 20 g). The medicament administration was started 24 hours after the randomization. Duration of the administration course was 27-28 days.\nThis dose corresponds to a human daily dose of 20 mg/kg.\nThe evaluation criteria included the clinical observation data, animals body weights, time of death (if applicable), tumor growth over time, pathomorphological examination data (verification of a neoplasm during autopsy, assessment of toxic effects by macroscopic presentation of changes in the internal organs).\nThe animals body weights were recorded before the first administration of the medicaments and then twice per week using a verified high-speed electronic laboratory balance Ohaus Scout Pro (USA) with a maximum load of 2000 g and a measurement pitch of 0.1 g."}, "uterine body": {"system": "uterine body", "test": "Hormonal effects on the uterine body (uterine weight)", "format": "in vivo, mice", "conditions": "Tamoxifen-2, 4 mg/kg, end of observation", "method": "The hormonal effects of the medicament on the uterine body was analyzed by comparing the uterine weight without uterine horns at the end of the observation period (Table 13)."}}, "note": "Marks after values point to notes of the source that are not given here.", "data": [{"molecule": "C[C@]12CC[C@@H]3c4ccc(OS(N)(=O)=O)cc4CC[C@H]3[C@@H]1CCC2=O", "note": "[estrone sulfamate]", "values": [{"measurement": "uterotropic activity", "setting": "[1]", "result": "strong uterotropic activity"}]}, {"molecule": "C[C@H]1Oc2cc(OS(N)(=O)=O)ccc2C2=C1C1=CCC[C@H](OS(N)(=O)=O)[C@@]1(C)CC2", "note": "[3,17αβ-disulfamoyloxy-7β-methyl-D-homo-6-oxa-estra-1,3,5(10), 8,14-pentaen]", "values": [{"measurement": "growth of breast cancer cells MCF-7", "setting": "[2]", "result": "inhibitor of the growth"}]}, {"molecule": "CC/C(=C(\\c1ccccc1)c1ccc(OCCN(C)C)cc1)c1ccccc1", "note": "[Tamoxifen, reference compound]", "values": [{"measurement": "inhibition of proliferation of MCF-7 tumour cells, compared with steroid of formula 2", "setting": "[3]", "result": "inhibited to the same extent"}, {"measurement": "Relative change of the average total volume of tumours to that of Day −1 (M)", "setting": "[4]; Day 6", "result": 40, "unit": "%"}, {"measurement": "Relative change of the average total volume of tumours to that of Day −1 (M)", "setting": "[4]; Day 13", "result": "80** %"}, {"measurement": "Relative change of the average total volume of tumours to that of Day −1 (M)", "setting": "[4]; Day −1", "result": 0, "unit": "%"}, {"measurement": "Average total volume of tumours in mice (M)", "setting": "[4]; Day 6", "result": "1 0.76 cm^3"}, {"measurement": "Average volume of tumors existing at the beginning of the experiment (M)", "setting": "[4]; Day 6", "result": 0.26, "unit": "cm^3"}, {"measurement": "Average total volume of tumours in mice (M)", "setting": "[4]; Day 13", "result": 0.88, "unit": "cm^3"}, {"measurement": "Average volume of tumors existing at the beginning of the experiment (M)", "setting": "[4]; Day 13", "result": 0.3, "unit": "cm^3"}, {"measurement": "Average volume of tumors existing at the beginning of the experiment (M)", "setting": "[4]; Day 20", "result": 0.47, "unit": "cm^3"}, {"measurement": "Average volume of tumors existing at the beginning of the experiment (M)", "setting": "[4]; Day 27", "result": 0.58, "unit": "cm^3"}, {"measurement": "Average total volume of tumours in mice (M)", "setting": "[4]; Day −1", "result": 0.66, "unit": "cm^3"}, {"measurement": "Average volume of tumors existing at the beginning of the experiment (M)", "setting": "[4]; Day −1", "result": 0.23, "unit": "cm^3"}, {"measurement": "TGI (average total tumour volume)", "setting": "[4]; vs Control-2, Day 6", "result": "−162", "unit": "%"}, {"measurement": "TGI (average tumor volume)", "setting": "[4]; vs Control-2, Day 6", "result": "−100", "unit": "%"}, {"measurement": "TGI (average total tumour volume)", "setting": "[4]; vs Control-2, Day 13", "result": "−35", "unit": "%"}, {"measurement": "TGI (average tumor volume)", "setting": "[4]; vs Control-2, Day 13", "result": "−7", "unit": "%"}, {"measurement": "TGI (average total tumour volume)", "setting": "[4]; vs Control-2, Day 20", "result": "−39", "unit": "%"}, {"measurement": "TGI (average tumor volume)", "setting": "[4]; vs Control-2, Day 20", "result": "−9", "unit": "%"}, {"measurement": "TGI (average total tumour volume)", "setting": "[4]; vs Control-2, Day 27", "result": "−21", "unit": "%"}, {"measurement": "TGI (average tumor volume)", "setting": "[4]; vs Control-2, Day 27 (end of observation)", "result": 5, "unit": "%"}, {"measurement": "TGI (average total tumour volume)", "setting": "[4]; vs Control-2, Day −1", "result": "−247", "unit": "%"}, {"measurement": "TGI (average tumor volume)", "setting": "[4]; vs Control-2, Day −1", "result": "−188", "unit": "%"}, {"measurement": "relative change in the total volume of tumours versus Control-3 group", "setting": "[4]; Tamoxifen-2 group", "result": "exceeded the value across the Control-3 group"}, {"measurement": "average volume of tumours exceeded the control group by", "setting": "[4]; Tamoxifen-2 group, end of the experiment", "result": 31, "unit": "%"}, {"measurement": "Average body weight of mice (M)", "setting": "[5]; Tamoxifen-1 group, Day 1", "result": 27.7, "unit": "g"}, {"measurement": "Average body weight of mice (M)", "setting": "[5]; Tamoxifen-1 group, Day 6", "result": 26.5, "unit": "g"}, {"measurement": "Average body weight of mice (M)", "setting": "[5]; Tamoxifen-1 group, Day 13", "result": 27.3, "unit": "g"}, {"measurement": "Average body weight of mice (M)", "setting": "[5]; Tamoxifen-1 group, Day 20", "result": 27.5, "unit": "g"}, {"measurement": "Average body weight of mice (M)", "setting": "[5]; Tamoxifen-1 group, Day 27", "result": 28.2, "unit": "g"}, {"measurement": "Body weight", "setting": "[5]; All mice", "result": "34.2 ± 1.4", "unit": "g"}, {"measurement": "Body weight", "setting": "[5]; estrous cycle phase E", "result": "34.2 ± 1.4", "unit": "g"}, {"measurement": "Average body weight of mice (M)", "setting": "[5]; Tamoxifen-2 group, Day 1", "result": 31.0, "unit": "g"}, {"measurement": "Average body weight of mice (M)", "setting": "[5]; Tamoxifen-2 group, Day 7", "result": 32.0, "unit": "g"}, {"measurement": "Average body weight of mice (M)", "setting": "[5]; Tamoxifen-2 group, Day 14", "result": 32.9, "unit": "g"}, {"measurement": "Average body weight of mice (M)", "setting": "[5]; Tamoxifen-2 group, Day 21", "result": 32.8, "unit": "g"}, {"measurement": "Average body weight of mice (M)", "setting": "[5]; Tamoxifen-2 group, Day 28", "result": 34.2, "unit": "g"}, {"measurement": "Uterine weight", "setting": "uterine body; All mice", "result": "28 ± 1", "unit": "MI"}, {"measurement": "Uterine weight", "setting": "uterine body; estrous cycle phase E", "result": "28 ± 1", "unit": "MI"}]}]}
